Reference: patent publication US5981517A, “Androstene derivatives” (priority 1997, dated 1999)
Where two headings read alike, the source gives them in different places.

Assays:
[1] = target: T1, rat lung glucocorticoid receptor (Rattus norvegicus, UniProt P06536); assay: Receptor binding studies ([3H]triamcinolone acetonide displacement); conditions: for Relative binding affinity (RBA): with respect to dexamethasone (RBA = 100); for RBA: further receptor binding studies (Table X), dexamethasone = 100, * mean ± SE of 3-5 results
T1 construct: Immediately after resection of the lungs, the tissue was frozen in ice; The cytosol was prepared; from tissue; host or cells: lung cytosol of adrenalectomized male Sprague-Dawley rats
T1 sequence (P06536 1-795): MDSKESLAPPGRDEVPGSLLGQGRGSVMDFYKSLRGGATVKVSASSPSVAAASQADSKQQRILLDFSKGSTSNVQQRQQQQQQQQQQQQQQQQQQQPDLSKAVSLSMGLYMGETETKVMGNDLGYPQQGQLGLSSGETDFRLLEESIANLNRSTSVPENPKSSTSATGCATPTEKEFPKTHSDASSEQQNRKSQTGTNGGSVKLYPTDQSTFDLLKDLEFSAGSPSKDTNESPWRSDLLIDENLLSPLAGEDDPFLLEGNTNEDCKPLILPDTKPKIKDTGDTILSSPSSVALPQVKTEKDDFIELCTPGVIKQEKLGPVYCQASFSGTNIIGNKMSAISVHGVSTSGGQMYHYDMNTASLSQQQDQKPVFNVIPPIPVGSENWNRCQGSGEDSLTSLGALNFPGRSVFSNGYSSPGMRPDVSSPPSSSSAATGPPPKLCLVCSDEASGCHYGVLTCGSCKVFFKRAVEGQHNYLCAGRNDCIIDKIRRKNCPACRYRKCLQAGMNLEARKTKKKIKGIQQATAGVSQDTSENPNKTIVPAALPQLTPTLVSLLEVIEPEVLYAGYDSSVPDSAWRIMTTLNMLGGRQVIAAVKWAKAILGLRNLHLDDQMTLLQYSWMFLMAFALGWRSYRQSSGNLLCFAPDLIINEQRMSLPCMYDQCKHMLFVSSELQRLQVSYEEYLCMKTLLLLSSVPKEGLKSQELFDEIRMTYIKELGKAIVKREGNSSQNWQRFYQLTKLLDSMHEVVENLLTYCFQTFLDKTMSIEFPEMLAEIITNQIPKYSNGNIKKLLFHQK
Protocol: Male Sprague-Dawley rats, each weighing 150 to 200 g, were used 6 days after adrenalectomy. Rats were sacrificed by decapitation. Immediately after resection of the lungs, the tissue was frozen in ice. […] Portions (5 ml) of the cytosol were frozen in liquid nitrogen and stored at -80° C.
The cytosol was thawed in a water bath and diluted with 1 part of incubation buffer containing a 15 mM concentration of diisopropyl fluorophosphate. […] After a 2 hour incubation period at room temperature (24° C.), the unbound steroid was removed by addition of a 2% suspension of activated charcoal in incubation buffer (400 μL). The mixture was incubated for 5 minutes at room temperature and then was centrifuged at about 10,000 g for 3 minutes in the microcentrifuge. The radioactivity (cpm) in the supernatant (400 μL) was determined by liquid scintillation counting.
The data is fitted to the following logistic function:
B=T-T * C^N /(C^N +IC50^N)+NS,
where B=CPM in the presence of competitor, T=CPM in the absence of competitor, C=competitor concentration, N=Hill slope factor, and NS=cpm under non-specific binding conditions.
For the representative compound of the invention B, receptor binding affinity was investigated with and without Δ^1 -cortienic acid in the incubation solution to study the effect of Δ^1 -cortienic acid on the receptor binding.
Further studies to evaluate the relative receptor binding affinities of compounds of the invention, other compounds of formula (VII) hereinabove and well-known anti-inflammatory steroids were undertaken, using the methods described in the RECEPTOR BINDING STUDIES set forth above. […] For comparison purposes, the following compounds having formula (VII) above were also tested: […]

[2] = tested on: forearm of a human volunteer; assay: Further human vasoconstriction testing, Method 2; type: in vivo; parameters: key: +: "positive" (pallor could be observed); -: "negative" (pallor could not be detected)
Protocol: The mixtures, in 20 μL amounts, were applied to circular patches (1/4 inch diameter). The patches were applied to the forearm of a human volunteer, and covered with a water impervious film for 3 hr. Vasoconstriction activity was judged by the appearance of pallor at various time points after the patches were removed. Tests were performed on the same person and the results were obtained from 2-4 observations.
In TABLE XIV above, "-" means a negative result was obtained. In other tables herein, "-" means not tested.
In TABLE XIV above, the results of a simpler method of judging vasoconstriction activity was used in which only "positive" (pallor could be observed) or "negative" (pallor could not be detected) results were recorded.

[3] = tested on: forearm of a human volunteer; assay: Human vasoconstriction test; type: in vivo; conditions: 10 mM
Protocol: Test compounds (10 mM) were dissolved in ethanol/propylene glycol (9/1) solution, and 50 μL of the mixtures were applied to circular patches, 8 mm in diameter. After ethanol evaporation, the patches were applied to the forearm of a human volunteer, and covered with a water impervious film for 3 hours. The intensity of vasoconstriction was judged 1, 8, 17 and 24 hours after the patches were removed.
The grading scale for the vasoconstriction activity was as follows: 0, normal skin; 1, slight pallor of indistinct outline; 2, pallor with at least two corners outlined; 3, even pallor with a clear outline of the application sites; 4, very intense pallor.

[4] = tested on: forearms of a human volunteer; assay: Further human vasoconstriction testing, Method 1; type: in vivo; conditions: 10 mM
Protocol: The mixtures, in 50 μL amounts, were applied to circular patches (8 mm diameter). After evaporation of ethanol, the patches were applied to the forearms of a human volunteer, and covered with a water impervious film for 3 hr. The intensity of vasoconstriction (scale 0-4) was judged at various time intervals after removal of the patches. The grading scale was as follows: 0, normal skin; 1, slight pallor of indistinct outline; 2, pallor with at least two corners outlined; 3, even pallor with a clear outline of the application sites; 4, very intense pallor. The skin tests (2-4 tests on each compound) were performed on the same person.

[5] = rat lung cytosol, 10 nM [3H]triamcinolone acetonide, with Δ1-cortienic acid, 2 h, 24° C., read-out: IC50

CC(C)OC(=O)[C@@]1(O)CC[C@H]2[C@@H]3CCC4=CC(=O)C=C[C@]4(C)[C@H]3[C@@H](O)C[C@@]21C [G]
IC50 [1, 5]: > 2000 nM
Relative binding affinity (RBA) ([1]; with Δ1-cortienic acid): < 1

COC(=O)[C@@]1(O)CC[C@H]2[C@@H]3CCC4=CC(=O)C=C[C@]4(C)[C@H]3[C@@H](O)C[C@@]21C [E]
IC50 [1]: > 2000 nM
Relative binding affinity (RBA) ([1]; with Δ1-cortienic acid): < 1

CC(=O)[C@@]1(O)CC[C@H]2[C@@H]3C[C@H](C)C4=CC(=O)C=C[C@]4(C)[C@@]3(F)[C@@H](O)C[C@@]21C [Fluorometholone, reference compound]
RBA [1]: 136 ± 5

CCOC(=O)[C@@]1(OC(=O)CCl)[C@H](C)C[C@H]2[C@@H]3CCC4=CC(=O)C=C[C@]4(C)[C@@]3(F)[C@@H](O)C[C@@]21C [T]
Vasoconstriction activity ([2]; 4 Hours, 0.01 mM): -
Vasoconstriction activity ([2]; 4 Hours, 0.05 mM): -
Vasoconstriction activity ([2]; 4 Hours, 0.1 mM): -
Vasoconstriction activity ([2]; 4 Hours, 0.5 mM): -
Vasoconstriction activity ([2]; 4 Hours, 1 mM): -
Vasoconstriction activity ([2]; 4 Hours, 5 mM): -

C[C@]12C=CC(=O)C=C1CC[C@@H]1[C@@H]2[C@@H](O)C[C@@]2(C)[C@H]1CC[C@]2(OC(=O)C(Cl)Cl)C(=O)O [H, 17α-dichloroacetoxy-11β-hydroxyandrosta-1,4-dien-3-one-17β-carboxylic acid]
IC50 [1, 5]: > 2000 nM
Relative binding affinity (RBA) ([1]; with Δ1-cortienic acid): < 2

CC1(C)O[C@@H]2C[C@H]3[C@@H]4CCC5=CC(=O)C=C[C@]5(C)[C@@]4(F)[C@@H](O)C[C@]3(C)[C@]2(C(=O)CO)O1 [Triamcinolone acetonide, reference compound]
IC50 [1]: 13 nM
RBA [1]: 630
Relative binding affinity (RBA) ([1]; with Δ1-cortienic acid): 628

C[C@@H]1C[C@H]2[C@@H]3CCC4=CC(=O)C=C[C@]4(C)[C@@]3(F)[C@@H](O)C[C@]2(C)[C@@]1(OC(=O)C(Cl)Cl)C(=O)OCCl [K, chloromethyl 17α-dichloroacetoxy-9α-fluoro-11β-hydroxy-16α-methylandrosta-1,4-dien-3-one-17β-carboxylate]
Vasoconstriction activity ([2]; 4 Hours, 0.01 mM): -
Vasoconstriction activity ([2]; 4 Hours, 0.05 mM): -
Vasoconstriction activity ([2]; 4 Hours, 0.1 mM): -
Vasoconstriction activity ([2]; 4 Hours, 0.5 mM): -
Vasoconstriction activity ([2]; 4 Hours, 1 mM): +
Vasoconstriction activity ([2]; 4 Hours, 5 mM): +
Vasoconstriction activity ([2]; 8 Hours, 0.01 mM): -
Vasoconstriction activity ([2]; 8 Hours, 0.05 mM): -
Vasoconstriction activity ([2]; 8 Hours, 0.1 mM): +
Vasoconstriction activity ([2]; 8 Hours, 0.5 mM): +
Vasoconstriction activity ([2]; 8 Hours, 1 mM): +
Vasoconstriction activity ([2]; 8 Hours, 5 mM): +
Vasoconstriction activity ([2]; 10-22 hours, 0.01 mM): -
Vasoconstriction activity ([2]; 10-22 hours, 0.05 mM): -
Vasoconstriction activity ([2]; 10-22 hours, 0.1 mM): -
Vasoconstriction activity ([2]; 10-22 hours, 0.5 mM): +
Vasoconstriction activity ([2]; 10-22 hours, 1 mM): +
Vasoconstriction activity ([2]; 10-22 hours, 5 mM): +
Vasoconstriction activity ([2]; 24 Hours, 0.01 mM): -
Vasoconstriction activity ([2]; 24 Hours, 0.05 mM): -
Vasoconstriction activity ([2]; 24 Hours, 0.1 mM): -
Vasoconstriction activity ([2]; 24 Hours, 0.5 mM): +
Vasoconstriction activity ([2]; 24 Hours, 1 mM): +
Vasoconstriction activity ([2]; 24 Hours, 5 mM): +

C[C@@H]1C[C@H]2[C@@H]3CCC4=CC(=O)C=C[C@]4(C)[C@@]3(F)[C@@H](O)C[C@]2(C)[C@@]1(O)C(=O)CO [Dexamethasone, reference compound]
Vasoconstriction activity ([3]; 1 hour after patch removal): 0
Vasoconstriction activity ([3]; 8 hours after patch removal): 1
Vasoconstriction activity ([3]; 17 hours after patch removal): 1
Vasoconstriction activity ([3]; 24 hours after patch removal): 1
Vasoconstriction activity ([4]; 3 Hours): 1
Vasoconstriction activity ([4]; 20 Hours): 1

CCOC(=O)[C@@]1(O)CC[C@H]2[C@@H]3CCC4=CC(=O)C=C[C@]4(C)[C@H]3[C@@H](O)C[C@@]21C [F]
IC50 [1, 5]: > 2000 nM
Relative binding affinity (RBA) ([1]; with Δ1-cortienic acid): < 1

COC(=O)[C@@]1(OC(=O)CCl)[C@H](C)C[C@H]2[C@@H]3CCC4=CC(=O)C=C[C@]4(C)[C@@]3(F)[C@@H](O)C[C@@]21C [S]
Vasoconstriction activity ([2]; 4 Hours, 0.01 mM): -
Vasoconstriction activity ([2]; 4 Hours, 0.05 mM): -
Vasoconstriction activity ([2]; 4 Hours, 0.1 mM): -
Vasoconstriction activity ([2]; 4 Hours, 0.5 mM): -
Vasoconstriction activity ([2]; 4 Hours, 1 mM): -
Vasoconstriction activity ([2]; 4 Hours, 5 mM): -
